{
  "source": "patent US20190037897A1",
  "about": "“AMORPHOUS COOLER DISPERSION COMPOSITION” (International Flavors & Fragrances Inc., priority 2016, published 2019)",
  "origin": "cited, not measured here",
  "data": [
    {"settings": "compared to menthol (as 100)", "values": [
      {"compound": "CC1CCC(C(C)C)C(O)C1", "note": "(stereo not shown) [menthol]", "relative cooling strength": 100},
      {"compound": "COc1ccc(NC(=O)[C@@H]2C[C@H](C)CC[C@H]2C(C)C)cc1", "note": "[WS-12, (1R,2S,5R)-N-(4-Methoxyphenyl)-p-menthanecarboxamide]", "relative cooling strength": 150},
      {"compound": "CCNC(=O)C1CC(C)CCC1C(C)C", "note": "(stereo not shown) [WS-3, N-Ethyl-p-menthane-3-carboxamide]", "relative cooling strength": 150},
      {"compound": "Ethyl 3-(p-menthane-3-carboxamido)acetate [WS-5]", "relative cooling strength": 400}
    ]}
  ]
}
